# Experimental data as given in the Deep4Chem optical property database.
# Test: solvent given as SMILES
structure (smiles),measurement,setting,value
O=c1c2cc(S(=O)(=O)O)ccc2[nH]c2ccc(S(=O)(=O)O)cc12,emission maximum,in CS(C)=O,417 nm
same,emission maximum,in O,417 nm
CCn1c(-c2ccc(-c3ccc4c(c3)C3(c5ccccc5-c5ccccc53)c3ccccc3-4)cc2)c(-c2ccc3ccccc3c2)c(-c2ccc3ccccc3c2)c1-c1ccc(-c2ccc3c(c2)C2(c4ccccc4-c4ccccc42)c2ccccc2-3)cc1,emission maximum,in CCOC(C)=O,441 nm
c1ccc2c(c1)ccc1ccc3ccc4ccc5ccccc5c4c3c12,emission maximum,in ClCCl,476 nm
CCOC(=O)CN(CC(=O)OCC)c1ccc(-c2cc(-c3ccccn3)nc(-c3ccccn3)c2)cc1,emission maximum,in CC#N,452 nm
same,emission maximum,in CCOC(C)=O,419 nm
same,emission maximum,in CN(C)C=O,458 nm
same,emission maximum,in CS(C)=O,466 nm
same,emission maximum,in c1ccccc1,400 nm
CC1=[N+]2C(=C(Oc3cc(C)c4c(c3)CC[C@@](C)(CCC[C@H](C)CCC[C@H](C)CCCC(C)C)O4)c3ccc(C)n3[B-]2(F)F)C=C1c1cc2n(c1)[B-](F)(F)[N+]1=CC=CC1=C2c1c(C)cc(C)cc1C,emission maximum,in C1CCCCC1,632 nm
same,emission maximum,in CCOC(C)=O,662 nm
CC(C)(C)c1ccc2c(c1)c1cc(C(C)(C)C)ccc1n2-c1cccc(-c2nc(-c3cccc(P(=O)(c4ccccc4)c4ccccc4)c3)nc(-c3cccc(P(=O)(c4ccccc4)c4ccccc4)c3)n2)c1,emission maximum,in C1CCOC1,511.91 nm
same,emission maximum,in CC#N,581.72 nm
same,emission maximum,in CC(C)=O,554.6 nm
same,emission maximum,in CN(C)C=O,567.81 nm
same,emission maximum,in Cc1ccccc1,480.78 nm
same,emission maximum,in ClC(Cl)Cl,512.5 nm
same,emission maximum,in ClCCl,535.02 nm
same,emission maximum,in O=P(c1ccccc1)(c1ccccc1)c1ccccc1Oc1ccccc1P(=O)(c1ccccc1)c1ccccc1,484 nm
Nc1ncnc2c1c(-c1ccc3ccccc3c1)nn2[C@H]1C[C@H](O)[C@@H](CO)O1,emission maximum,in C1COCCO1,359 nm
same,emission maximum,in CC#N,360 nm
same,emission maximum,in CC(C)O,363 nm
same,emission maximum,in CCO,364 nm
same,emission maximum,in CCOC(C)=O,358 nm
same,emission maximum,in CN(C)C=O,361 nm
same,emission maximum,in CO,362 nm
same,emission maximum,in CS(C)=O,363 nm
same,emission maximum,in OCC(O)CO,372 nm
same,emission maximum,in OCCO,365 nm
c1ccc(C[n+]2cc3ccc4c[n+](Cc5ccccc5)cc5ccc(c2)c3c45)cc1,emission maximum,in CC#N,427 nm
CC1=C(Br)C(C)=[N+]2C1=C(c1c(-c3ccccn3)nc3ccccn13)c1c(C)c(Br)c(C)n1[B-]2(F)F,emission maximum,in ClCCl,571 nm
Oc1ccc(-c2cccs2)cc1-c1nc2ccccc2s1,emission maximum,in CCO,428 nm
same,emission maximum,in ClCCl,405 nm
same,emission maximum,in O,566 nm
CC(=O)OCCN1C(=O)c2cccc3c(Oc4ccc(C#N)cc4)ccc(c23)C1=O,emission maximum,in ClC(Cl)Cl,410 nm
Cc1ccc(-n2cccc2)cc1,emission maximum,in CC#N,312 nm
same,emission maximum,in CCCCCC,310 nm
O=C1[C@@H]2[C@H](C(=O)N1c1cccc3cc4ccccc4cc13)[C@@H]1C=C[C@H]2C1,emission maximum,in ClC(Cl)Cl,392 nm
CC(=O)Nc1cc2ccc3cccc4ccc(c1)c2c34,emission maximum,in CC#N,388 nm
same,emission maximum,in CCCCOCCCC,389 nm
same,emission maximum,in CO,387 nm
O=[N+]([O-])c1ccc(NCCN(Cc2c3ccccc3cc3ccccc23)c2ccc([N+](=O)[O-])cc2[N+](=O)[O-])c([N+](=O)[O-])c1,emission maximum,in C1CCCCC1,419 nm
same,emission maximum,in C1CCOC1,416 nm
same,emission maximum,in CC#N,389 nm
same,emission maximum,in CC(C)=O,388 nm
same,emission maximum,in CCO,388 nm
same,emission maximum,in CN(C)C=O,409 nm
same,emission maximum,in CO,389 nm
same,emission maximum,in ClC(Cl)Cl,417 nm
N#CSC1=CC2=C(c3c(Cl)cccc3Cl)c3cc(SC#N)c(NCc4ccccc4)n3[B-](F)(F)[N+]2=C1NCc1ccccc1,emission maximum,in CC#N,648 nm
same,emission maximum,in CCCCCC,655 nm
same,emission maximum,in CCOC(C)=O,654 nm
same,emission maximum,in CO,646 nm
same,emission maximum,in ClCCl,656 nm
COc1ccc(-c2csc(/C(C#N)=C/c3c(Cl)cccc3Cl)n2)cc1,emission maximum,in CC#N,550 nm
Cc1cc(C)c([B-]2(c3c(C)cc(C)cc3C)[O+]=P(c3ccccc3)(c3ccccc3)c3cc(-c4ccc(N(C)C)cc4)sc3-c3sc(-c4ccc(N(C)C)cc4)cc32)c(C)c1,emission maximum,in C1CCOC1,552 nm
CCN(CC)c1ccc2cc(C#N)/c(=N\C(C)=O)oc2c1,emission maximum,in CCO,462 nm
same,emission maximum,in ClCCl,460 nm
CCCCC1(c2ccccc2)Nc2c(-c3ccc(N(C)C)cc3)ccc(-c3ccc(N(C)C)cc3)c2N=C1c1ccccc1 (stereo not given),emission maximum,in C1CCOC1,568 nm
same,emission maximum,in CC#N,588 nm
same,emission maximum,in CCCCCC,530 nm
same,emission maximum,in CN(C)C=O,596 nm
same,emission maximum,in Cc1ccccc1,547 nm
same,emission maximum,in ClC(Cl)Cl,561 nm
CN(C)c1cccc(/C=C/c2ncc(-c3ccc(OCc4ccccc4)c(OCc4ccccc4)c3)o2)c1,emission maximum,in ClCCl,490 nm
CCCCC(CC)COc1ccc2nc(-c3ccc(-c4ccc(OC)cc4)s3)sc2c1 (stereo not given),emission maximum,in ClCCl,434 nm
c1ccc2cc(-c3c4ccccc4c(-c4ccc(-n5c6ccccc6c6ccccc65)cc4)c4ccccc34)ccc2c1,emission maximum,in ClCCl,427 nm
Cc1cccc(C2=CC3=C(c4c(C)cc(C)cc4C)c4cc(-c5cccc(C)c5)c(-c5cccc(C)c5)n4[B-](F)(F)[N+]3=C2c2cccc(C)c2)c1,emission maximum,in C1CCCCC1,625 nm
same,emission maximum,in C1CCOC1,626 nm
same,emission maximum,in CC#N,620 nm
same,emission maximum,in Cc1ccccc1,628 nm
same,emission maximum,in ClCCl,627 nm
COc1cc2c(cc1-c1ccc(N(c3ccccc3)c3ccccc3)cc1)Cc1c3c(c4c(c1-2)-c1cc(OC)c(-c2ccc(N(c5ccccc5)c5ccccc5)cc2)cc1C4)C(=O)N(CCC(C)C)C3=O,emission maximum,in C1CCOC1,563 nm
Cc1ccc2ccc3c(C)ccc4ccc1c2c43,emission maximum,in CCCCCC,380 nm
same,emission maximum,in CO,381 nm
same,emission maximum,in ClCCl,382 nm
O=C1CC(c2cccc([N+](=O)[O-])c2)c2c(c3ccccc3c3nc4ccccc4nc23)O1 (stereo not given),emission maximum,in CCCCCC,417 nm
same,emission maximum,in CCOC(C)=O,429 nm
same,emission maximum,in CN(C)C=O,443 nm
same,emission maximum,in CO,452 nm
same,emission maximum,in CS(C)=O,452 nm
same,emission maximum,in ClC(Cl)Cl,428 nm
CN(C)c1ccc(C#Cc2nc(-c3ccccc3)nc3ccccc23)cc1,emission maximum,in C1CCCCC1,423 nm
same,emission maximum,in C1CCOC1,549 nm
same,emission maximum,in CC#N,570 nm
same,emission maximum,in CS(C)=O,584 nm
same,emission maximum,in ClCCl,551 nm
CCCCCCc1cc2c(s1)-c1sc(CCCCCC)cc1P(c1ccccc1)(c1ccccc1)=[O+][B-]2(c1c(C)cc(C)cc1C)c1c(C)cc(C)cc1C,emission maximum,in C1CCOC1,536 nm
c1ccc(-c2nc(-c3ccc(-c4ccc(-c5ccc(-c6nc(-c7ccccc7)c(-c7ccccc7)o6)cc5)cc4)cc3)oc2-c2ccccc2)cc1,emission maximum,in C1COCCO1,426 nm
Cc1ccc2[nH]c(-c3ccc(-c4ccc(-c5ccc(-c6nc7cc(C)ccc7[nH]6)cc5)cc4)cc3)nc2c1,emission maximum,in CN(C)C=O,416 nm
c1ccc(-c2nnc(-c3ccc(-n4c5ccccc5c5ccccc54)cc3)o2)cc1,emission maximum,in CCO,440 nm
same,emission maximum,in Cc1ccccc1,387 nm
C(=C\c1cccc2ccccc12)/c1ncc(-c2ccccc2)o1,emission maximum,in ClCCl,440 nm
CCCC1=Cc2nc1ccc1[nH]c(cc1CCC)c1nc(c(NC(=O)CCCC(=O)OC)cc3[nH]c2cc3CCC)C(CCC)=C1,emission maximum,in Cc1ccccc1,680 nm
CC(C)(C)c1ccc(-n2c(-c3ccc(-c4ccc(N(c5ccccc5)c5ccccc5)cc4)s3)nc3c4ccccc4c4ccccc4c32)cc1,emission maximum,in ClCCl,419 nm
CCOC(=O)CN(CC(=O)OCC)c1ccc(-c2cc(-c3ccncc3)nc(-c3ccncc3)c2)cc1,emission maximum,in CC#N,482 nm
same,emission maximum,in CCOC(C)=O,438 nm
same,emission maximum,in CN(C)C=O,490 nm
same,emission maximum,in CS(C)=O,496 nm
same,emission maximum,in c1ccccc1,412 nm
